Laboratory results taken from ChEMBL document CHEMBL1201862, “PubChem BioAssay data set” (2004).
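A five-concentration, 48-hour dose response in 96-well plates underlies each endpoint, interpolated linearly between surrounding concentrations. At the GI50, growth is halved.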 Calls of active or inactive are those of the source. Rule as the data show it: active = GI50 up to about 1.1 µM and inactive = higher.

What was measured:
Experiment in all cases: NCI anticancer screen, dose series, 48 h
SW-620 = tested on: SW-620
COLO 205 = tested on: COLO 205
RXF 393 = tested on: RXF 393
A498 = tested on: A498
BT-549 = tested on: BT-549
786-0 = tested on: 786-0
OVCAR-8 = tested on: OVCAR-8
DU-145 = tested on: DU-145
UACC-62 = tested on: UACC-62
U-251 = tested on: U-251
UACC-257 = tested on: UACC-257
TK-10 = tested on: TK-10
NCI-H460 = tested on: NCI-H460
LOX IMVI = tested on: LOX IMVI
HCC 2998 = tested on: HCC 2998
SK-OV-3 = tested on: SK-OV-3
OVCAR-3 = tested on: OVCAR-3
HOP-62 = tested on: HOP-62
Hs-578T = tested on: Hs-578T
RPMI-8226 = tested on: RPMI-8226

Measured: GI50

O=C(O)c1ccc(Nc2cnc3ccc(C(F)(F)F)cc3n2)cc1
inactive: SW-620 20.9 µM | COLO 205 17.2 µM | RXF 393 12.6 µM | A498 23.8 µM | BT-549 20.9 µM | 786-0 38.9 µM | OVCAR-8 17.1 µM | DU-145 23.9 µM | UACC-62 14 µM | U-251 24.7 µM | UACC-257 32.7 µM | TK-10 13.6 µM | NCI-H460 28.1 µM | LOX IMVI 12.1 µM | HCC 2998 6.61 µM | SK-OV-3 33.5 µM | OVCAR-3 28.2 µM | HOP-62 16.1 µM | Hs-578T 7.08 µM | RPMI-8226 18.1 µM

CCOC(=O)C(C)c1nc2ccc(C(F)(F)F)cc2[nH]c1=O (stereo not given)
inactive: SW-620 > 100 µM | COLO 205 > 100 µM | RXF 393 64.3 µM | A498 34 µM | BT-549 42 µM | 786-0 > 100 µM | OVCAR-8 94.6 µM | DU-145 69.2 µM | UACC-62 39.8 µM | U-251 > 100 µM | UACC-257 58.7 µM | TK-10 60.7 µM | NCI-H460 84.9 µM | LOX IMVI 66.2 µM | HCC 2998 65.2 µM | SK-OV-3 > 100 µM | OVCAR-3 28 µM | HOP-62 > 100 µM | Hs-578T 68.4 µM | RPMI-8226 28.9 µM

O=C1c2cc3ccccc3cc2C2(c3ccc(Cl)cc3)NCCN12 (stereo not given)
inactive: SW-620 50.4 µM | COLO 205 17.6 µM | RXF 393 21.8 µM | A498 77.3 µM | BT-549 54 µM | 786-0 38.1 µM | OVCAR-8 33.3 µM | DU-145 40.6 µM | UACC-62 19.2 µM | U-251 34.9 µM | UACC-257 31.8 µM | TK-10 34.8 µM | NCI-H460 29.6 µM | LOX IMVI 21.9 µM | HCC 2998 21.1 µM | SK-OV-3 29.3 µM | OVCAR-3 23.6 µM | HOP-62 32.4 µM | Hs-578T 38.3 µM | RPMI-8226 29.4 µM

COC(=O)CC1c2ccccc2N2C(=O)Cc3c([nH]c4ccccc34)C12 (stereo not given)
inactive: SW-620 > 100 µM | COLO 205 > 100 µM | RXF 393 > 100 µM | A498 > 100 µM | BT-549 > 100 µM | 786-0 58.6 µM | OVCAR-8 > 100 µM | DU-145 > 100 µM | UACC-62 > 100 µM | U-251 > 100 µM | UACC-257 > 100 µM | TK-10 > 100 µM | NCI-H460 > 100 µM | LOX IMVI > 100 µM | HCC 2998 > 100 µM | SK-OV-3 > 100 µM | OVCAR-3 > 100 µM | HOP-62 36.5 µM | Hs-578T 25.4 µM | RPMI-8226 > 100 µM

N#Cc1c(N)nc(Sc2ccccc2N)c(C#N)c1-c1ccc(Cl)cc1
inactive: SW-620 > 33.3 µM | COLO 205 28.5 µM | RXF 393 16 µM | A498 2.65 µM | BT-549 4.21 µM | 786-0 6.98 µM | OVCAR-8 9.12 µM | DU-145 12.7 µM | UACC-62 4.06 µM | U-251 7.59 µM | UACC-257 15.9 µM | TK-10 13.7 µM | NCI-H460 9.46 µM | LOX IMVI 4.45 µM | HCC 2998 9.73 µM | SK-OV-3 12 µM | OVCAR-3 6.34 µM | HOP-62 3.7 µM | Hs-578T 7.26 µM | RPMI-8226 2.61 µM

O=C1OC(CCCN2CCCCC2)(c2ccccc2)CC12CCCC2 (stereo not given)
inactive: SW-620 > 100 µM | COLO 205 32.3 µM | RXF 393 80 µM | A498 57.4 µM | BT-549 > 100 µM | 786-0 > 100 µM | OVCAR-8 > 100 µM | DU-145 > 100 µM | UACC-62 61.4 µM | U-251 > 100 µM | UACC-257 23.1 µM | TK-10 > 100 µM | NCI-H460 89.1 µM | LOX IMVI > 72.1 µM | HCC 2998 66.1 µM | SK-OV-3 > 100 µM | OVCAR-3 > 100 µM | HOP-62 > 100 µM | Hs-578T 63.1 µM | RPMI-8226 50 µM

O=C(OCC1CCCN2CCCCC12)c1ccncc1 (stereo not given)
inactive: SW-620 > 100 µM | COLO 205 > 100 µM | RXF 393 > 100 µM | A498 > 100 µM | BT-549 > 100 µM | 786-0 > 100 µM | OVCAR-8 > 100 µM | DU-145 > 100 µM | UACC-62 > 100 µM | U-251 > 100 µM | UACC-257 > 100 µM | TK-10 > 100 µM | NCI-H460 > 100 µM | LOX IMVI > 100 µM | HCC 2998 > 100 µM | SK-OV-3 > 100 µM | OVCAR-3 > 100 µM | HOP-62 > 100 µM | Hs-578T > 100 µM | RPMI-8226 > 100 µM

CC(C)=NOC(=O)CNC(=O)C(Cc1ccccc1)NC(=O)C(C)NC(=O)OC(C)(C)C (stereo not given)
inactive: SW-620 > 100 µM | COLO 205 > 100 µM | RXF 393 > 100 µM | A498 > 100 µM | BT-549 > 100 µM | 786-0 > 100 µM | OVCAR-8 > 100 µM | DU-145 > 100 µM | UACC-62 > 100 µM | U-251 > 100 µM | UACC-257 > 100 µM | TK-10 > 100 µM | NCI-H460 > 100 µM | LOX IMVI > 100 µM | HCC 2998 > 100 µM | SK-OV-3 > 100 µM | OVCAR-3 > 100 µM | HOP-62 > 100 µM | Hs-578T > 100 µM | RPMI-8226 > 100 µM

CCOC(=O)c1sc(=S)n(-c2ccc(Cl)cc2)c1-n1cc(-c2ccccc2)c(C#N)c1N
inactive: SW-620 53 µM | COLO 205 > 100 µM | RXF 393 15.4 µM | A498 23.1 µM | BT-549 23.7 µM | 786-0 11 µM | OVCAR-8 12.1 µM | DU-145 6.81 µM | UACC-62 24.8 µM | U-251 15.2 µM | UACC-257 41.4 µM | TK-10 11.3 µM | NCI-H460 22.3 µM | LOX IMVI 43.5 µM | HCC 2998 34.2 µM | SK-OV-3 16.9 µM | OVCAR-3 13.7 µM | HOP-62 3.13 µM | Hs-578T 4.19 µM | RPMI-8226 26.5 µM

C/C(=N\NC(N)=S)c1ccccn1.OB(O)c1ccccc1
inactive: SW-620 5.93 µM | COLO 205 3.85 µM | RXF 393 2.37 µM | A498 5.89 µM | BT-549 8.15 µM | 786-0 3.73 µM | OVCAR-8 3.63 µM | DU-145 3.3 µM | UACC-62 3.25 µM | U-251 3.28 µM | UACC-257 4.47 µM | TK-10 14 µM | NCI-H460 3.78 µM | LOX IMVI 2.58 µM | HCC 2998 4.36 µM | SK-OV-3 5.57 µM | OVCAR-3 2.62 µM | HOP-62 5.5 µM | Hs-578T > 100 µM | RPMI-8226 5.87 µM
